The values that follow come from patent US10758500B2, “Treating androgen deprivation therapy induced hot flashes and bone loss in men using cis-clomiphene” (ASPEN PARK PHARMACEUTICALS, INC., priority 2014, dated 2020).

In this experiment the test system is Men who have advance prostate cancer on ADT. In words: Effect of cis-clomiphene on bone turnover markers and BMD (Example 2). Type of experiment: in vivo, human. The following applies: 50 mg/d for 6 months, Day 180 compared with baseline. As for the experimental part:
Men who have advance prostate cancer on ADT are treated with 50 mg/d of substantially cis-clomiphene for 6 months. At Day 180, baseline bone turnover markers like serum bone specific alkaline phosphatase and are compared to current values as well as BMD by DEXA.
Bone analysis methodology may be carried out as described in U.S. Patent Publication No. 2004/0214898, the pertinent contents of which are incorporated herein by reference.

With `CCN(CC)CCOc1ccc(/C(=C(/Cl)c2ccccc2)c2ccccc2)cc1` [cis-clomiphene], the “effects on bone: bone turnover markers (serum bone specific alkaline phosphatase) and BMD by DEXA” value is “estrogenic effects on bone favorably affecting bone turnover markers and BMD”.
